According to patent US20250122207A1, “AP2 ASSOCIATED KINASE 1 INHIBITORS AND USES THEREOF” (Satellos Bioscience Inc., priority 2023, published 2025):
Read-outs that look alike come from different tables or passages of the source.

Experiments:
[1] = target: AAK1 (Homo sapiens, UniProt Q2M2I8); experiment: pAP2M1 cell-based assay (in-cell Western); conditions: Hela cells co-transfected with AP2M1 and AAK1, 3 hr treatment; class symbols; read-out: AAK1 In-cell Western: IC50
Text: pAP2M1 Cell-Based Assay (in-Cell Western):
The plate was read on Licor Odyssey CLx imaging system (LICOR) to acquire fluorescence intensity at 700 channel and 800 channel.
Data analysis: Fluorescence intensity at 700 channel served as internal standard and 800 channel were normalized with 700 channel.

[2] = target: T1, AAK1 (amino acids T27-A365) (Homo sapiens, UniProt Q2M2I8); experiment: AAK1 pSENs assay; format: biochemical
T1 construct: against AAK1 (amino acids T27-A365); 6His (N, cleaved yes)
Protocol: (§1) The recombinant proteins were independently expressed in Escherichia coli BL21(DE3) cells cultured in Luria-Bertani (LB) medium until OD600 reached 0.6-0.8, then cooled to 15° C. and supplemented with 0.5 mM isopropyl 1-thio-D-galactopyranoside (IPTG) induce protein expression 16 h. Cells were harvested and resuspended in lysis buffer (50 mM HEPES pH 7.5, 500 mM NaCl, 5 mM imidazole, 5% glycerol, 0.5 mM Tris (2-carboxyethyl) phosphine (TCEP), cOmplete Protease Inhibitor Tablet (Roche)) and lysed by microfludics high pressure homogenizer (UH-06, Union-Biotech). Proteins were purified using […] chromatography (His FF column, Bestchrom) and eluted stepwise in binding buffer with 20-300 mM imidazole. Removal of the hexahistidine tag was performed at 4° C. overnight using recombinant TEV protease and reacted with BirA to obtain the corresponding biotinylated-AAK1, BIKE or GAK proteins. Further separated in the reverse Strep column (Strep-Tactin® XT, IBA). The Biotin elution sample was collected containing untagged biotinylated protein was then purified by Ion-exchange chromatography (Mono Q 10/100 GL, Cytiva) and Size-exclusion chromatography (HiLoad 16/600 Superdex 200 pg, Cytiva). The pure protein was stored in a storage buffer 50 mM HEPES (pH 7.5), 300 mM NaCl, 5% glycerol at −80° C. Protein were characterized by SDS-PAGE, LC-MS and aSEC.
(§2) This example describes one illustrative method for determining the IC50 of the compounds of the present invention against AAK1 (amino acids T27-A365). AAK1 protein was dissolved at 20 nM in 1× enzyme solution (50 mM HEPES pH7.5, 10 mM MgCl2, 1 mM DTT, 1% glycerol, 0.5 mM EGTA, 0.01% Briji35, 0.02% BSA) and 12.5 ul was incubated with 250 nl DMSO or 250 nl compound in DMSO at 25° C. for 15 min. The reaction was started by addition of 12.5 ul of 30 uM AQT0759 (Assayquant, CSKS-AQT0759B) and 70 uM ATP which were diluted in 1× substrate dilution buffer (50 mM HEPES pH7.5, 10 mM MgCl2, 1 mM DTT, 1% glycerol, 0.5 mM EGTA, 0.01% Briji35).

[3] = target: T2, BIKE (amino acids S38-E345) (K320A, K321A) (Homo sapiens, UniProt Q9NSY1, K320A/K321A); experiment: BIKE pSENs assay; format: biochemical
T2 construct: against BIKE (amino acids S38-E345) (K320A, K321A); 6His (N, cleaved yes)
Protocol: as §1
as §2, with “BIKE” for “This example describes one illustrative method for determining the IC50 of the compounds of the present invention against AAK1 (amino acids T27-A365). AAK1”, “40” for “70”

[4] = class symbols, read-out: AAK1 pSENs: EIC50
[5] = class symbols, read-out: BIKE pSENs: IC50

Sequence of AAK1 (Q2M2I8 whole entry): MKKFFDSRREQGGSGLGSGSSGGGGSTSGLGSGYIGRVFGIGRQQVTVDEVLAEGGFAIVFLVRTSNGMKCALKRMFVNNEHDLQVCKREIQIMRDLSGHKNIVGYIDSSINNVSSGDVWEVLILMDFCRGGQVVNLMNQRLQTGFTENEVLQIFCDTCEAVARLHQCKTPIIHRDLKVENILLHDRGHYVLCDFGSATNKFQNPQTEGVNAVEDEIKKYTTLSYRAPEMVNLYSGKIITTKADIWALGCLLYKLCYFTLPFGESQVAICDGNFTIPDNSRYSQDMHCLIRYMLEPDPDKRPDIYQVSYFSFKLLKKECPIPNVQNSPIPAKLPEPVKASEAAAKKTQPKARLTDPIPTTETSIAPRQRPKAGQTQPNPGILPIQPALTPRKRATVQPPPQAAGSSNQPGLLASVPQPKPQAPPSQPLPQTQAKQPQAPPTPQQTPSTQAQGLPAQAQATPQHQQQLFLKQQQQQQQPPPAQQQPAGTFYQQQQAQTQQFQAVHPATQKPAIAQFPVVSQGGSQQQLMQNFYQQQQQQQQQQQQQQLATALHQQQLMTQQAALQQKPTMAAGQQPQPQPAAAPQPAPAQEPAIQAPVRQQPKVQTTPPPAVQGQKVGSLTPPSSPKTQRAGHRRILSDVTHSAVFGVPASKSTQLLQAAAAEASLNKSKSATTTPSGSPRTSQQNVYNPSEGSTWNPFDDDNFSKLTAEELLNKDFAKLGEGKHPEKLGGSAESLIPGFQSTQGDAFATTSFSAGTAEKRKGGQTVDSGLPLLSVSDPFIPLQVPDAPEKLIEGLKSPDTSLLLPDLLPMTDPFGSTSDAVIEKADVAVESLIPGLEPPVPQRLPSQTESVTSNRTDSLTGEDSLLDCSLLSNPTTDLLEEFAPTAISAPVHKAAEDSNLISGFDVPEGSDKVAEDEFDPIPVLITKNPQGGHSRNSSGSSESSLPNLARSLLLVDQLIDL
T2 sequence (Q9NSY1 38-345 K320A/K321A): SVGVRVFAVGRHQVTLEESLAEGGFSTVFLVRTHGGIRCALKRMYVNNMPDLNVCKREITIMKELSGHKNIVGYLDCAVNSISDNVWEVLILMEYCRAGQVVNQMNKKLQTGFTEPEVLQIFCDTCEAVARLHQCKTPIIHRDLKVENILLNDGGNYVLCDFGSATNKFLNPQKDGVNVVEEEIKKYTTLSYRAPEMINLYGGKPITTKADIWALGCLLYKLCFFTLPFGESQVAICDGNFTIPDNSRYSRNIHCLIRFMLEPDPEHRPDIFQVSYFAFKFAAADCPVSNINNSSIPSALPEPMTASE
T1 sequence (Q2M2I8 27-365): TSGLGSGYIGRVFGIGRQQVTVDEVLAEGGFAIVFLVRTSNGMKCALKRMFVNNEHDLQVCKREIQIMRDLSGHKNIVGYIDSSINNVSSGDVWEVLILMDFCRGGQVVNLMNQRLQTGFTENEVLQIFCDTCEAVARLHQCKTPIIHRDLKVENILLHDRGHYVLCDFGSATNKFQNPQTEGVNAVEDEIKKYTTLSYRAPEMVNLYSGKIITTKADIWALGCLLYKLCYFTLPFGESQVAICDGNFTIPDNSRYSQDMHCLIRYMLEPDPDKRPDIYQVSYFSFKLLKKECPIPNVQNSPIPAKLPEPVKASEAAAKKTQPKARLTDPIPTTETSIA

Row | IC50 [1] [nM] | IC50 [2, 4] [nM] | IC50 [3, 5] [nM] | SMILES | IC50 [2] [nM] | IC50 [3] [nM]
1 | 151 to 500 | 1 to 50 | 501 to 1500 | C[C@@]1(OC(=O)N2CCN(c3ccn4ncc(-c5cccnc5OC5CC5)c4n3)CC2)CCN(CCO)C1 [Compound I-52, [(3R)-1-(2-hydroxyethyl)-3-methyl-pyrrolidin-3-yl]-4-[3-[2-(cyclopropoxy)-3-pyridyl]pyrazolo[1,5-a]pyrimidin-5-yl]piperazine-1-carboxylate] | – | –
2 | > 1500 | 1 to 50 | 51 to 150 | O=C(O[C@H]1CC(=O)N(C2CCNCC2)C1)N1CCN(c2ccn3ncc(-c4cccnc4OC4CC4)c3n2)CC1 [Compound I-32, [(3S)-5-Oxo-1-(4-piperidyl)pyrrolidin-3-yl]4-[3-[2-(cyclopropoxy)-3-pyridyl]pyrazolo[1,5-a]pyrimidin-5-yl]piperazine-1-carboxylate] | – | –
3 | 501 to 1500 | 1 to 50 | 501 to 1500 | CC(C)Oc1ncccc1-c1cnn2ccc(N3CCN(C(=O)O[C@@H]4CNC(=O)C4)CC3)nc12 [Compound I-26, [(3S)-5-Oxopyrrolidin-3-yl]-4-[3-(2-isopropoxy-3-pyridyl)pyrazolo[1,5-a]pyrimidin-5-yl]piperazine-1-carboxylate] | – | –
4 | 151 to 500 | 1 to 50 | 51 to 150 | CN1C[C@@H](OC(=O)N2CCN(c3nc4c(-c5cccnc5OC5CC5)cnn4cc3F)CC2)CC1=O [Compound I-109, [(3S)-1-methyl-5-oxo-pyrrolidin-3-yl]4-[3-[2-(cyclopropoxy)-3-pyridyl]-6-fluoro-pyrazolo[1,5-a]pyrimidin-5-yl]piperazine-1-carboxylate] | – | –
5 | 151 to 500 | 1 to 50 | 151 to 500 | CN1C[C@@H](OC(=O)N2CCN(c3ccn4ncc(-c5cc(F)cnc5OC5CC5)c4n3)CC2)CC1=O [Compound I-86] | – | –
6 | – | 1 to 50 | 51 to 150 | [2H]C([2H])([2H])N1C[C@@H](OC(=O)N2CCN(c3nc4c(-c5cc(F)cnc5OC5CC5)cnn4cc3F)CC2)CC1=O [Compound I-118, [(3S)-5-oxo-1-(trideuteriomethyl)pyrrolidin-3-yl]4-[3-[2-(cyclopropoxy)-5-fluoro-3-pyridyl]-6-fluoro-pyrazolo[1,5-a]pyrimidin-5-yl]piperazine-1-carboxylate] | – | –
7 | – | 1 to 50 | 51 to 150 | [2H]C([2H])([2H])N1C[C@@H](OC(=O)N2CCN(c3nc4c(-c5cccnc5OC5CC5)cnn4cc3F)CC2)CC1=O [Compound I-116, [(3S)-5-oxo-1-(trideuteriomethyl)pyrrolidin-3-yl]4-[3-[2-(cyclopropoxy)-3-pyridyl]-6-fluoro-pyrazolo[1,5-a]pyrimidin-5-yl]piperazine-1-carboxylate] | – | –
8 | > 1500 | 501 to 1500 | – | Cc1cn2ncc(-c3cccnc3OC3CC3)c2nc1N1CCN(C(=O)O[C@H]2CC(=O)N(C)C2)CC1 [Compound I-111, [(3S)-1-methyl-5-oxo-pyrrolidin-3-yl]-4-[3-[2-(cyclopropoxy)-3-pyridyl]-6-methyl-pyrazolo[1,5-a]pyrimidin-5-yl]piperazine-1-carboxylate] | – | –
9 | > 1500 | 151 to 500 | – | COC(=O)N1CC(Oc2ncccc2-c2cnn3ccc(N4CCN(C(=O)O[C@@H]5CC(=O)N(CCOCc6ccccc6)C5)CC4)nc23)C1 [Compound I-84-6, [(3R)-1-(2-benzyloxyethyl)-5-oxo-pyrrolidin-3-yl]-4-[3-[2-(1-methoxycarbonyl-azetidin-3-yl)oxy-3-pyridyl]pyrazolo[1,5-a]pyrimidin-5-yl]piperazine-1-carboxylate] | – | –
10 | > 1500 | 151 to 500 | – | CN1C[C@@H](OC(=O)N2CCN(c3nc4c(-c5cccnc5OC5CCCCC5)cnn4cc3F)CC2)CC1=O [Compound I-123, [(3S)-1-methyl-5-oxo-pyrrolidin-3-yl]-4-[3-[2-(cyclohexoxy)-3-pyridyl]-6-fluoro-pyrazolo[1,5-a]pyrimidin-5-yl]piperazine-1-carboxylate] | – | –
11 | > 1500 | > 1500 | – | CN1CC(Oc2ncccc2-c2cnn3ccc(N4CCN(C(=O)O[C@@H]5CNC(=O)C5)CC4)nc23)C1 [Compound I-44, (S)-5-Oxopyrrolidin-3-yl 4-(3-(2-((1-methylazetidin-3-yl)oxy)pyridin-3-yl)pyrazolo[1,5-a]pyrimidin-5-yl)piperazine-1-carboxylate] | – | –
12 | 501 to 1500 | 1 to 50 | – | COC(=O)N1CC(Oc2ncccc2-c2cnn3ccc(N4CCN(C(=O)O[C@@H]5CC(=O)N(C)C5)CC4)nc23)C1 [Compound I-83, [(3R)-1-methyl-5-oxo-pyrrolidin-3-yl]4-[3-[2-(1-methoxycarbonylazetidin-3-yl)oxy-3-pyridyl]pyrazolo[1,5-a]pyrimidin-5-yl]piperazine-1-carboxylate] | – | –
13 | > 1500 | 51 to 150 | – | O=C1NCC[C@H]1OC(=O)N1CCN(c2ccn3ncc(-c4cccnc4OC4CC4)c3n2)CC1 [Compound I-23, [(3R)-2-oxopyrrolidin-3-yl]-4-[3-[2-(cyclopropoxy)-3-pyridyl]pyrazolo[1,5-a]pyrimidin-5-yl]piperazine-1-carboxylate] | – | –
14 | > 1500 | 51 to 150 | – | O=C1NCC[C@@H]1OC(=O)N1CCN(c2ccn3ncc(-c4cccnc4OC4CC4)c3n2)CC1 [Compound I-24, [(3S)-2-Oxopyrrolidin-3-yl]-4-[3-[2-(cyclopropoxy)-3-pyridyl]pyrazolo[1,5-a]pyrimidin-5-yl]piperazine-1-carboxylate] | – | –

Row | SMILES | IC50 [1] [nM] | IC50 [2, 4] [nM] | IC50 [3, 5] [nM] | IC50 [2] [nM] | IC50 [3] [nM]
15 | CN1C[C@@H](OC(=O)N2CCN(c3ccn4ncc(-c5cccnc5OC5CCOC5)c4n3)CC2)CC1=O (stereo partly drawn) [Compound I-119, [(3S)-1-methyl-5-oxo-pyrrolidin-3-yl]4-[3-(2-tetrahydrofuran-3-yloxy-3-pyridyl)pyrazolo[1,5-a]pyrimidin-5-yl]piperazine-1-carboxylate] | > 1500 | 51 to 150 | 501 to 1500 | – | –
16 | O=C1C[C@@H](OC(=O)N2CCN(c3ccn4ncc(-c5cccnc5OC5CC5)c4n3)CC2)CN1 [Compound I-10, [(3R)-5-Oxopyrrolidin-3-yl]-4-[3-[2-(cyclopropoxy)-3-pyridyl]pyrazolo[1,5-a]pyrimidin-5-yl]piperazine-1-carboxylate] | 501 to 1500 | 1 to 50 | 151 to 500 | – | –
17 | [2H]C([2H])([2H])N1C[C@@H](OC(=O)N2CCN(c3ccn4ncc(-c5cccnc5OC5CC5)c4n3)CC2)CC1=O [Compound I-113, [(3S)-5-oxo-1-(trideuteriomethyl)pyrrolidin-3-yl]4-[3-[2-(cyclopropoxy)-3-pyridyl]pyrazolo[1,5-a]pyrimidin-5-yl]piperazine-1-carboxylate] | 151 to 500 | – | – | 1 to 50 | 501 to 1500
18 | CC1(OC(=O)N2CCN(c3ccn4ncc(-c5cccnc5OC5CCC5)c4n3)CC2)COC1 [Compound I-17, (3-Methyloxetan-3-yl) 4-[3-[2-(cyclobutoxy)-3-pyridyl]pyrazolo[1,5-a]pyrimidin-5-yl]piperazine-1-carboxylate] | 501 to 1500 | 1 to 50 | – | – | –
19 | CC1(OC(=O)N2CCN(c3ccn4ncc(-c5cccnc5OCC5CCC5)c4n3)CC2)COC1 [Compound I-19, 3-Methyloxetan-3-yl 4-(3-(2-(cyclobutylmethoxy)pyridin-3-yl)pyrazolo[1,5-a]pyrimidin-5-yl)piperazine-1-carboxylate] | > 1500 | 151 to 500 | – | – | –
